For 17 molecules, IC50 and Ki results are on record in patent publication EP0873990A1, “BENZOIC ACID COMPOUNDS AND MEDICINAL USE THEREOF” (YOSHITOMI PHARMACEUTICAL INDUSTRIES, LTD., priority 1995, dated 1997).

The target in experiment [1] is T1, 5-HT3 receptor (Rattus norvegicus, UniProt P35563).
T1 construct: crude synapse membrane sample was prepared from rat cerebral cortex; from tissue; host or cells: rat cerebral cortex, crude synaptic membranes
T1 sequence (P35563 24-483): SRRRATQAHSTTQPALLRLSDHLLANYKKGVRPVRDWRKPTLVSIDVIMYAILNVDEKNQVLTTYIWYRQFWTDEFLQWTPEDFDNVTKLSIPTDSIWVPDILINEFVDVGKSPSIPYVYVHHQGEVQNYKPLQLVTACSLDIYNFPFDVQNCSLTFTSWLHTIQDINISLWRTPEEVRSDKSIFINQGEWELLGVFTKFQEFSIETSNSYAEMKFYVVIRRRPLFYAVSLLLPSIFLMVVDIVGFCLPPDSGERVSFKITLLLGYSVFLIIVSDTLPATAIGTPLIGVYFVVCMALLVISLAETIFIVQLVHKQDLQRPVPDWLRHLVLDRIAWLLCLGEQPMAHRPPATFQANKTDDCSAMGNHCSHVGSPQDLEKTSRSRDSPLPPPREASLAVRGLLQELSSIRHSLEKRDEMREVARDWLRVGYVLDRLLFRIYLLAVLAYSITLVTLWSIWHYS
Put plainly: 5-HT3 receptor binding test ([3H]Granisetron, crude synapse membrane from cerebral cortex). To be noted: for Ki: IC50 converted to Ki, read-out: Affinity for receptor (Ki value, nM) 5-HT3.
Procedure: 148, pp. 297-299 (1988)], a specific 5-HT3 receptor binding test was run using, as a tracer ligand, endo-1-methyl-N-(9-methyl-9-azabicyclo[3.3.1]non-3-yl)-1H-indazole-3-carboxamide substituted by tritium (hereinafter to be referred to as [3H]Granisetron). Specifically, crude synapse membrane sample was prepared from rat cerebral cortex, suspended in 50 mM HEPES buffer (pH 7.4) and used for testing. The test compound having several different concentrations and [3H]Granisetron (final concentration 1.0 nM) were added to this suspension and allowed to react at 25°C. Thirty minutes later, the reaction mixture was filtered by suction with cell harvester. The filter was washed with 50 mM Tris buffer (pH 7.4), and the radioactivity on the filter was counted using liquid scintillation counter or β-plate. The non-specific binding was determined in the presence of 1 µM Tropisetron. The concentration of the test compound necessary for 50% inhibition (IC50) was determined from a graph and converted to a Ki value.

Experiment [2] has as its target T2, 5-HT4 receptor (Cavia porcellus, UniProt O70528).
T2 construct: crude synapse membrane sample was prepared from guinea pig striatum; from tissue; host or cells: guinea pig striatum, crude synaptic membranes
The experiment in a line: biochemical. Format: binding, guinea pig.
Procedure: Specifically, crude synapse membrane sample was prepared from guinea pig striatum, suspended in 50 mM HEPES buffer (pH 7.4) and used for testing. The test compound having several different concentrations and [3H]GR113808 (final concentration 0.1 nM) were added to this suspension and allowed to react at 37°C. Thirty minutes later, the reaction mixture was filtered by suction with cell harvester. The filter was washed with 50 mM HEPES buffer, and the radioactivity on the filter was counted by liquid scintillation counter. The non-specific binding was determined in the presence of 1 µM GR113808. The concentration of the test compound necessary for 50% inhibition (IC50) was determined from a graph and converted to a Ki value.

Where [3] appears, read: values marked * are IC50, [3H]Granisetron 1.0 nM, rat cerebral cortex membranes, 25°C, 30 min, read-out: Affinity for receptor 5-HT3 (∗ shows IC50).
Setting [4] is: [3H]GR113808 0.1 nM, guinea pig striatum membranes, 37°C, 30 min, IC50 converted to Ki, read-out: Affinity for receptor (Ki value, nM) 5-HT4.
The mark [5] stands for this setting: [3H]Granisetron 1.0 nM, rat cerebral cortex membranes, 25°C, 30 min.

Molecules are shown by their SMILES. Counter-ions that a name gives are not always drawn. Like-named read-outs stand apart in the source and are kept apart here. Some results are limits rather than exact numbers.

T2 sequence (O70528 whole entry): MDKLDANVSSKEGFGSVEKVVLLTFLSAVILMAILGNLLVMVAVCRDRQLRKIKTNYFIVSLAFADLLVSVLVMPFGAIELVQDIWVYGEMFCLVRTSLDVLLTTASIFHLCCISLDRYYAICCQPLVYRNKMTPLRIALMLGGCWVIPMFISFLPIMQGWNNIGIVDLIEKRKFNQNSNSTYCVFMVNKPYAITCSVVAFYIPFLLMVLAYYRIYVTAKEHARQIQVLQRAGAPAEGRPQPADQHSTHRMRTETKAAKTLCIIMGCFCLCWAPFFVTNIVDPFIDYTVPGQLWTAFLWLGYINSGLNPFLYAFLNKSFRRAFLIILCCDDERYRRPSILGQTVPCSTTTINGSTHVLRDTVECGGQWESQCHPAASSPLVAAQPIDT

Regarding `COc1cc(N)c(Cl)cc1C(=O)NCC1CCN(CCCCCNCC2CCCCC2)CC1` [Example 11, 4-amino-5-chloro-N-((1-(5-(cyclohexylmethylamino)pentyl)piperidin-4-yl)methyl)-2-methoxybenzamide], in experiment [1] (setting [3]), the IC50 was greater than 1000 nM. In experiment [2] (setting [4]), the Ki amounted to 0.51 nM.
Turning to `COc1cc(N)c(Cl)cc1C(=O)NCC1CCN(CCCCCNCc2ccc3ccccc3c2)CC1` [Example 14, 4-amino-5-chloro-2-methoxy-N-((1-(5-(2-naphthylmethylamino)pentyl)piperidin-4-yl)methyl)benzamide], the IC50 in experiment [1] (setting [3]) is greater than 1000 nM. Further, in experiment [2] (setting [4]), the Ki is 0.97 nM.
`CCN(CCCCCN1CCC(CNC(=O)c2cc(Cl)c(N)cc2OC)CC1)Cc1ccc(F)cc1` [Example 25, 4-amino-5-chloro-N-((1-(5-(N-ethyl-N-(4-fluorobenzyl)amino)pentyl)piperidin-4-yl)methyl)-2-methoxybenzamide]: the IC50 in experiment [1] (setting [3]) is greater than 1000 nM. In experiment [2] (setting [4]), the Ki was found to be 0.94 nM.
Consider `CCCN(CCCCCN1CCC(CNC(=O)c2cc(Cl)c(N)cc2OC)CC1)Cc1ccccc1` [Example 33, 4-amino-5-chloro-2-methoxy-N-((1-(5-(N-n-propyl-N-benzylamino)pentyl)piperidin-4-yl)methyl)benzamide], for which the IC50 in experiment [1] (setting [3]) was greater than 1000 nM. Besides, in experiment [2] (setting [4]), the Ki is 0.84 nM.
For `CCN(CCCCN1CCC(CNC(=O)c2cc(Cl)c(N)cc2OC)CC1)Cc1ccc(Cl)c(Cl)c1` [Example 42, 4-amino-5-chloro-N-((1-(4-(N-(3,4-dichlorobenzyl)-N-ethylamino)butyl)piperidin-4-yl)methyl)-2-methoxybenzamide], in experiment [1] (setting [3]), the IC50 was greater than 1000 nM. Besides, in experiment [2] (setting [4]), the Ki was found to be 0.62 nM.
As to `CCN(CCCCCCN1CCC(CNC(=O)c2cc(Cl)c(N)cc2OC)CC1)Cc1ccccc1` [Example 44, 4-amino-5-chloro-N-((1-(6-(N-ethyl-N-benzylamino)hexyl)piperidin-4-yl)methyl)-2-methoxy benzamide], the half-inhibitory concentration (IC50) in experiment [1] (setting [3]) was greater than 1000 nM. The Ki in experiment [2] (setting [4]) is 0.67 nM.
For the molecule `CCN(CCCCCCN1CCC(CNC(=O)c2cc(Cl)c(N)cc2OC)CC1)Cc1ccc([N+](=O)[O-])cc1` [Example 47, 4-amino-5-chloro-N-((1-(6-(N-ethyl-N-(4-nitrobenzyl)amino)hexyl)piperidin-4-yl)methyl)-2-methoxybenzamide], the IC50 in experiment [1] (setting [3]) was greater than 1000 nM. For the same molecule, the Ki in experiment [2] (setting [4]) amounted to 2.7 nM.
`COc1cc(N)c(Cl)cc1C(=O)NCC1CCN(CCCCCOCc2ccccc2)CC1` [Example 53, 4-amino-N-((1-(5-benzyloxypentyl)piperidin-4-yl)methyl)-5-chloro-2-methoxybenzamide]: the results for the Ki in experiment [1] (setting [5]) and in experiment [2] (setting [4]) were 370 nM and 3.5 nM, respectively.
Consider `COc1cc(N)c(Cl)cc1C(=O)NCC1CCN(CCCCCSCc2ccccc2)CC1` [Example 54, 4-amino-N-((1-(5-benzylthiopentyl)piperidin-4-yl)methyl)-5-chloro-2-methoxybenzamide], for which the values for the inhibition constant (Ki) in experiment [1] (setting [5]) and in experiment [2] (setting [4]) were 340 nM and 1.6 nM, respectively.
With `COc1cc(N)c(Cl)cc1C(=O)NCC1CCN(CCCCCCC(=O)c2ccccc2)CC1` [Example 58, 4-amino-5-chloro-2-methoxy-N-((1-(7-oxo-7-phenylheptyl)piperidin-4-yl)methyl)benzamide], the IC50 in experiment [1] (setting [3]) is greater than 1000 nM. The Ki in experiment [2] (setting [4]) was 1.5 nM.
With `COc1ccc(C(=O)CCCCCN2CCC(CNC(=O)c3cc(Cl)c(N)cc3OC)CC2)cc1Cl` [Example 73, 4-amino-5-chloro-N-((1-(6-(3-chloro-4-methoxyphenyl)-6-oxohexyl)piperidin-4-yl)methyl)-2-methoxybenzamide], the IC50 in experiment [1] (setting [3]) is greater than 1000 nM. The Ki in experiment [2] (setting [4]) came out at 1.8 nM.
Turning to `COc1ccc(C(=O)CCCCCN2CCC(CNC(=O)c3cc(Cl)c(N)cc3OC)CC2)cc1F` [Example 74, 4-amino-5-chloro-N-((1-(6-(3-fluoro-4-methoxyphenyl)-6-oxohexyl)piperidin-4-yl)methyl)-2-methoxybenzamide], the IC50 in experiment [1] (setting [3]) was greater than 1000 nM. For the same molecule, in experiment [2] (setting [4]), the Ki was 5.1 nM.
As to `COc1cc(N)c(Cl)cc1C(=O)NCC1CCN(CCCCCC(=O)c2ccc(O)cc2)CC1` [Example 75, 4-amino-5-chloro-N-((1-(6-(4-hydroxyphenyl)-6-oxohexyl)piperidin-4-yl)methyl)-2-methoxybenzamide], the IC50 in experiment [1] (setting [3]) is greater than 1000 nM. Further, the Ki in experiment [2] (setting [4]) amounted to 1.5 nM.
In the case of `COc1cc(N)c(Cl)cc1C(=O)NCC1CCN(CCCCCC(=O)c2cn(C)c3ccccc23)CC1` [Example 77, 4-amino-5-chloro-2-methoxy-N-((1-(6-(1-methyl-1H-indol-3-yl)-6-oxohexyl)piperidin-4-yl)methyl)benzamide], in experiment [1] (setting [3]), the IC50 was greater than 1000 nM. Further, the Ki in experiment [2] (setting [4]) was found to be 0.34 nM.
Regarding `COc1cc(N)c(Cl)cc1C(=O)NCC1CCN(CCCCCC(=O)c2cccc3ccccc23)CC1` [Example 81, 4-amino-5-chloro-N-((1-(6-(1-naphthyl)-6-oxohexyl)piperidin-4-yl)methyl)-2-methoxybenzamide hydrochloride], the IC50 in experiment [1] (setting [3]) was greater than 1000 nM. Besides, the Ki in experiment [2] (setting [4]) is 0.5 nM.
`COc1cc(N)c(Cl)cc1C(=O)NCC1CCN(CCCCCS(=O)(=O)c2ccccc2)CC1` [Example 84, 4-amino-5-chloro-2-methoxy-N-((1-(5-phenylsulfonylpentyl)piperidin-4-yl)methyl)benzamide hydrochloride]: the IC50 in experiment [1] (setting [3]) is greater than 1000 nM. The Ki in experiment [2] (setting [4]) worked out at 1.4 nM.
`CCn1cc(C(=O)CCCCCN2CCC(CNC(=O)c3cc(Cl)c(N)cc3OC)CC2)c2ccccc21` [Example 93, 4-amino-5-chloro-2-methoxy-N-((1-(6-(1-ethyl-1H-indol-3-yl)-6-oxohexyl)piperidin-4-yl)methyl)benzamide] gave an IC50 in experiment [1] greater than 1000 nM. In experiment [2], this molecule had a Ki of 0.47 nM.

The IC50 is the concentration that gives 50% inhibition. What is called Ki is a measure of affinity in units of concentration, obtained from inhibition or displacement.
